According to paper PMC3859510 (PLoS ONE, 2013):
Like-named read-outs stand apart in the source and are kept apart here.

What was measured:
[1] = Cytostatic assay (MTS/PMS) in Huh 7.5.1 cells; assay type: cell-based; conditions: human
Protocol: (§1) Cells were seeded at a density of 5×10^3 or 7.2×10^3 cells per well in a 96-well plate in complete DMEM in serial dilutions of the test compounds for Huh 5-2 and Huh 7.5.1 cells, respectively. After three days of incubation, cell viability was determined by MTS/PMS method (Promega).

[2] = tested on: infectious HCV JFH-1/CS-N6 in Huh 7.5.1 cells; assay: microbe, parasite or virus in culture; assay type: cell-based, hepatitis C virus (HCV); conditions: for EC50: 3 days, qRT-PCR, mean ± SD, four independent experiments; for SI: HCVcc system, CC50/EC50
Protocol: The highly infectious HCV JFH-1/CS-N6 described by Delgrange et al was used for the antiviral assays. A total of 7.2×10^3 Huh 7.5.1 cells per well of a 96-well cell culture plate were incubated with the virus at specific infectivity of about 400 (400 HCV RNA copies per foci-forming unit) and at the same time with serial dilutions of compounds. Following 3 days of incubation, medium was removed and cells were washed once and lysed to extract the intracellular RNA with the RNeasy kit (Qiagen). HCV RNA was quantified by means of qRT-PCR [25].
A qRT-PCR mixture contained: cellular RNA extract, HCV JFH-1 forward primer SF-JFH86 [5′-[…]-3′], reverse primer SR-JFH194 [5′-[…]-3′], and probe [5′-FAM-[…]-TAMRA-3′], was performed at 50°C for 30 min, subsequent 15 min at 95°C and PCR amplification of 40 cycles of denaturation at 94°C for 20 s and annealing and extension at 60°C for 1 min in an ABI 7500 Taqman (Live Technologies).

[3] = Cytostatic assay (MTS/PMS) in Huh 5-2 cells; assay type: cell-based; conditions: human, three days
Protocol: as §1

[4] = tested on: HCV replicons I389luc-ubi-neo/NS3-3′/5.1 (Huh 5-2), genotype 1b subgenomic replicon; assay: Antiviral assay in HCV replicon cells (Huh 5-2, firefly luciferase); assay type: cell-based, hepatitis C virus (HCV); conditions: for EC50: Hepatitis C virus, read-out: EC50 (50% effective concentration), HCV replicon replication, Huh 5-2 subgenomic replicon (genotype 1b), firefly luciferase, mean ± SD, four independent experiments; for fold-change of EC50 with Hemin (5 µM) (value between brackets): Huh 5-2 replicon, potentiation by Hemin 5 µM
Protocol: Cells carrying HCV replicons I389luc-ubi-neo/NS3-3′/5.1 (Huh 5-2) were kindly provided by Prof. R. Bartenschlager (University of Heidelberg, Germany). Cells were cultured in Dulbecco’s modified Eagle’s Medium (DMEM, Gibco, Merelbeke, Belgium) supplemented with 10% heat-inactivated fetal bovine serum (Integro, Zaandam, The Netherlands), 1× non-essential amino acids, 100 IU/mL penicillin (Gibco), 100 µg/mL streptomycin (Gibco), and 250 µg/mL G418. Cell cultures were maintained at 37°C with 5% CO2.
(§2) The antiviral assay was performed as described, [22]. Briefly, cells were seeded at a density of 5×10^3 cells per well in 96-well cell culture plates in DMEM containing 250 µg/mL G418 at 37°C (5% CO2). After 24 hours of incubation, medium was replaced with fresh DMEM (without G418) and serial dilutions of the test compounds. Replicon RNA levels were determined by a quantitative reverse transcription polymerase chain reaction (qRT-PCR) or quantified by measuring the firefly luciferase activity in 96-well cell culture plates (Safire, Tecan, Austria).

Huh 7.5.1 cells = assay: Cytostatic assay (MTS/PMS) in Huh 7.5.1 cells; assay type: cell-based
Protocol: as §1

[5] = tested on: HCV replicon in Huh 5-2 cells; assay: Drug combination studies (checker-board, Prichard and Shipman) in the HCV replicon system; assay type: cell-based, hepatitis C virus (HCV); conditions: Figure S2
Protocol: as §2
The effects of drug combinations were evaluated in a checker-board format using the method of Prichard and Shipman. The theoretical additive effect was calculated from the dose–response curves of individual compounds by the equation Z = X+Y(1−X), where X represents the inhibition produced by first compound alone and Y the inhibition by the second compound alone. Z represents the effect produced by the combination of the first with the second compound. The theoretical additive surface is subtracted from the actual experimental surface, resulting in a horizontal surface that equals the zero plane when the combination is additive. A surface that lies above the zero plane indicates a synergistic effect of the combination, and a surface below the zero plane indicates an antagonism. […]

[6] = Huh 7.5.1 hepatoma cells, three days, MTS/PMS
[7] = Hepatitis C virus, Huh-7.5.1, 72 h, read-out: EC50 (50% effective concentration), replication of HCVcc, infectious HCV JFH-1 in Huh 7.5.1
[8] = read-out: EC50 (50% effective concentration), replication of HCVcc, infectious HCV JFH-1 in Huh 7.5.1

Compound	CC50 at 3 days [1, 6]	CC50 at 3 days [3]	EC50 [4]	fold-change of EC50 with Hemin (5 µM) (value between brackets) [4]	EC50 [2, 7]	SI [2]	also measured
C[C@H]1[C@H](OC(=O)CCC(=O)O)O[C@@H]2O[C@@]3(C)CC[C@H]4[C@H](C)CC[C@@H]1[C@@]24OO3 [Artesunate]	< 6 µM						
CC(=O)N[C@@H](CS)C(=O)O [L-NAC, L-N-acetylcysteine, reference compound]							HCV RNA replication with L-NAC alone ([2]; L-NAC alone at the concentration tested, printed as HCVcc replication): 98 % of UTC
CC(=O)OC1OC2OC3(C)CCC4C(C)CCC(C1C)C24OO3 (centres unmarked) [TVN2]		36 ± 7 µM	25 ± 13 µM	+4 fold	> 70 µM		
CC1CCC2C(C)C(OCc3ccc(COC4OC5OC6(C)CCC7C(C)CCC(C4C)C57OO6)cc3)OC3OC4(C)CCC1C32OO4 (centres unmarked) [AJ-004]	> 133 µM	> 133 µM	3.2 ± 2.4 µM		16 ± 4 µM	> 8	fold more efficient in inhibiting HCV replicon replication compared to the monomer AJ-001 ([4]; subgenomic replicon system): ~3 fold; fold more potent than the monomer AJ-002 ([4]; subgenomic replicon system): ~10 fold
Hemin [reference compound]							concentration not toxic to Huh 7.5.1 (Huh 7.5.1 cells; Hemin alone): > 50 µM; EC50 [2, 8]: 8 ± 0.6 µM
C[C@@H]1CC[C@H]2[C@@H](C)C(=O)O[C@@H]3O[C@@]4(C)CC[C@@H]1[C@]32OO4 [ART, Artemisinin, reference compound]	> 400 µM	> 400 µM	75 ± 7 µM	8 fold	167 ± 38 µM	> 2	host cell proliferation and cell viability at the highest concentration tested (Huh 7.5.1 cells; 400 µM, HCVcc system cells): not affected; potentiation of antiviral activity by Hemin in the HCVcc system ([2]; Hemin at 5 µM): 2 fold; effect of the combination with TEMPO [5]: marginaly antagonistic effect
C[C@H]1[C@@H](O)O[C@@H]2O[C@@]3(C)CC[C@H]4[C@H](C)CC[C@@H]1[C@@]24OO3 [Dihydroartemisinin]	< 6 µM						
C=COC1OC2OC3(C)CCC4C(C)CCC(C1C)C24OO3 (centres unmarked) [TVN4]	> 133 µM	123 ± 14 µM	36 ± 16 µM	+2 fold	59 ± 6 µM	> 2	EC50 [2, 8]: 52 ± 6 µM; effect of the combination with TEMPO [5]: marginaly antagonistic effect
C[C@@H]1CCC2[C@@H](C)[C@H](OCc3ccc(C=O)cc3)OC3O[C@@]4(C)CCC1[C@]32OO4 (some centres unmarked) [AJ-002]	> 133 µM	> 133 µM	30 ± 8 µM	15 fold	15 ± 2 µM	> 8	
CC1CCC2C(C)C(OC(=O)c3ccccc3)OC3OC4(C)CCC1C32OO4 (centres unmarked) [TVN6]		40 ± 20 µM	3.6 ± 2.3 µM		> 70 µM		
CO[C@H]1O[C@@H]2O[C@@]3(C)CC[C@H]4[C@H](C)CC[C@@H]([C@H]1C)[C@@]24OO3 [Artemether]	< 6 µM						
CCC[C@H](NC(=O)[C@@H]1[C@H]2CCC[C@H]2CN1C(=O)[C@@H](NC(=O)[C@@H](NC(=O)c1cnccn1)C1CCCCC1)C(C)(C)C)C(=O)C(=O)NC1CC1 [VX-950, reference compound]					0.2 ± 0.1 µM	> 50	CC50 at 3 days [1]: > 10 µM
CC1(C)CCCC(C)(C)N1[O] [TEMPO, 2,2,6,6-tetramethyl-1-piperidinyloxy, reference compound]							effect of TEMPO alone on the replication of HCV ([4]; HCV replicon system, concentrations up to 200 µM): no effect
C[C@@H]1CCC2[C@@H](C)[C@H](OCc3ccc(CO)cc3)OC3O[C@@]4(C)CCC1[C@]32OO4 (some centres unmarked) [AJ-001]	> 133 µM	> 133 µM	8.8 ± 2.7 µM	2 fold	26 ± 5 µM	> 5	
